“Also recorded” adds a separate entry of the source.
How the values were obtained:
[1] = system: primary human nasal epithelial cells (HNECs); assay: Semagacestat dose response on multiciliated cell (MCC) formation in HNEC ALI cultures; assay type: cell-based
Protocol: Air-Liquid Interface (ALI) cultures were prepared as described in Vladar EK, Nayak JV, Milla CE, Axelrod JD. Airway epithelial homeostasis and planar cell polarity signaling depend on multiciliated cell differentiation. JCI Insight. 2016;1(13);e88027. Human nasal epithelial cells (HNECs) were generated from human sinonasal epithelial brushings or from tissue obtained from patients undergoing endoscopic sinus surgery at Stanford Hospital and cultured as described in Vladar et al.
Cultures were treated with varying doses of semagacestat. DAPT (Abcam) was used ([…]) as a positive control for GSI activity. Cultures were labeled at ALI+21d with anti-acetylated α-tubulin (green) and ECAD (red) antibodies to mark cilia and epithelial junctions.
The ratio was defined as MCC number/total luminal cells. Counting was done on one representative image from 5 culture replicates from a single donor.

[2] = system: airway epithelia; assay: In vivo mouse model, ratio of MCCs to non-ciliated cells in airway epithelia after IP dosing; parameters: species or system mice
Protocol: Airways from lung sections of similar size were labeled for all nuclei (red; DAPI) and MCC cell fate (green; FoxJ1 and blue; acetylated tubulin). Cells were scored and the percentage of MCCs determined prior to unblinding treatment condition. Otherwise wildtype mice carried FoxJ1::GFP to facilitate scoring of MCCs.
10-40 week age-matched male and female Foxj1-GFP mice were given semagacestat or vehicle by intraperitoneal (IP) administration. In the first experiment, semagacestat was administered at 0.1 mg/kg and 1 mg/kg twice daily for three days and compared to vehicle alone. Mice were sacrificed on day 7. […] In approximately similar sized, PFA-fixed airways, nuclei (red; DAPI) were scored either as MCCs (green; GFP) or non-ciliated cells (absence of GFP). Acetylated tubulin (blue) marks cilia. Samples were blinded for treatment group prior to scoring.
In the second experiment, vehicle and semagacestat were administered once daily for 5 consecutive days per week for three weeks, with a semagacestat dose of 1 mg/kg. An important observed toxicity in multiple GSI clinical trials, including large Alzheimer’s Disease trials, was gastrointestinal toxicity. As a surrogate measure of GI toxicity, we monitored body weight throughout the experiment.
Body weight was measured on Days 1, 9, 24 and 30, and mice were sacrificed on day 31.

[3] = system: Mature (ALI+30d) primary human airway epithelial cells; assay: GSI treatment of mature (ALI+30d) cultures; assay type: cell-based; settings: mature cultures treated one (ALI+30 to +37d) or two weeks (ALI+30 to +44d)
Protocol: Mature (ALI+30d) primary human airway epithelial cells were treated with DAPT and semagacestat for one (ALI+30 to +37d) or two weeks (ALI+30 to +44d), then labeled with anti-acetylated α-Tubulin (green) and ECAD (red) antibodies.

[4] = system: HNEC cultures from a CF patient; assay: IL-13 induced chronic inflammation model in ALI HNEC cultures; assay type: cell-based, human; settings: DAPT 1 um, semagacestat 125 nm, days 14-21
Protocol: Administration of IL-13 to ALI cultures induces goblet cell hyperplasia and is a useful model of chronic inflammation. ALI HNEC cultures were prepared as described in Vladar et al. ALI cultures were treated with and without administration of Il-13 on days 7-14. DAPT (1 um), semagacestat (125 nm) or vehicle control were administered on days 14-21. PFA-fixed cultures were stained for Muc5AC (red; mucin producing secretory cells), Acetylated tubulin (green; MCCs) and E-Cadherin (blue to reveal cell boundaries).
HNEC cultures from a CF patient were treated with IL-13 from ALI+7 to 14 to induce inflammation. […] IL-13 treatment increases the percentage of mucin positive secretory cells and decreases the percentage of MCCs.

[5] = system: Primary nasal epithelial cells from two CF donors (F508del homozygote); assay: Airway surface liquid (ASL) reabsorption; assay type: cell-based, human; settings: 30 µl PBS, weight change over time; p = <0.001 vs control
Protocol: Primary nasal epithelial cells from two CF donors (F508del homozygote) were grown in filter inserts as in previous experiments to full differentiation. During differentiation they received treatment with vehicle control (blue), triple combination CFTR modulator (Elexcaftor/Tezacaftor/Ivacaftor; orange), the GSI semagacestat (LY-45139) (gray) or both treatments combined (yellow). Once they reached maturity, the apical surface was washed gently with PBS and then 30 µl of PBS were added to the surface. The filter inserts were then weighed on a precision scale at times 0, 12 and 24 hours after fluid addition. The change in weight over time was taken as a surrogate for fluid reabsorption.

[6] = system: Primary nasal epithelial cells from two CF donors (F508del homozygotes); assay: Mucus transport by latex bead movement; assay type: cell-based, human; settings: 2 µm latex beads; p < 0.01 vs control; combination p < 0.05 vs either alone
Protocol: Primary nasal epithelial cells from two CF donors (F508del homozygotes) were grown in duplicate as in previous experiments to full differentiation under treatment with vehicle control, triple combination CFTR modulator (Elexcaftor/Tezacaftor/Ivacaftor), the GSI semagacestat (LY-45139) or both treatments combined. Once mature, a 20 µl suspension of 2 µm latex beads was added to the apical surface and the insert cut for placement under a microscope fitted with a high-speed video recorder. Images were then acquired at 1000 fps to track bead movement as a reflection of mucus transport by the ciliated surface and distance travelled by individual beads estimated.

[7] = oral administration; cited from earlier work

## CC(C)[C@H](O)C(=O)N[C@@H](C)C(=O)N[C@@H]1C(=O)N(C)CCc2ccccc21 [semagacestat, (2S)-2-hydroxy-3-methyl-N-[(1S)-1-methyl-2-oxo-2-[[(1S)-2,3,4,5-tetrahydro-3-methyl-2-oxo-1H-3-benzazepin-1-yl]amino]ethyl]-butamide]
[1]; HNECs, FIG. 1 dose response
  semagacestat concentration at which the percentage of MCCs is at its baseline: 15.625 nM
  semagacestat concentration at which the percentage of MCCs reaches its maximum: around 125 nM
[1]; HNECs, micromolar doses
  Toxicity: Toxicity is observed at micromolar doses
[1]; nanomolar concentrations, labeled at ALI+21d
  conversion to MCCs: effective conversion to MCCs
[1]; semagacestat doses from 500 nM to 31.25 nM, p <0.01 by ANOVA with Dunnett's test
  ratio MCC number/total luminal cells: significant increases
[2]; 0.1 mg/kg and 1 mg/kg IP twice daily for three days, sacrificed day 7, vs vehicle
  ratio of ciliated to non-ciliated cells: increase; also recorded: a dose response trend was observed, with the high dose reaching statistical significance
[2]; 1 mg/kg IP once daily, 5 days per week for three weeks, day 31, vs vehicle
  ratio of ciliated to non-ciliated cells: significant increase; also recorded: highly significant
[3]
  formation of additional multiciliated cells: induces the formation of additional multiciliated cells
[4]; after IL-13 (ALI+7 to 14)
  percentage of MCCs: increasing the percentage of MCCs
  percentage of mucin positive secretory cells: decreasing the percentage of mucin positive secretory cells
[4]; controls without IL-13
  percentage of MCCs: increase the percentage off MCCs
[5]
  ASL (fluid) reabsorption vs control: significantly decreased reabsorption
[6]
  bead movement (mucus transport): Significant increases in movement
[7]
  half-life: approximately 2.5 hours

Reference: patent US20230277550A1, “Methods for Treating Respiratory Diseases Characterized by Mucus Hypersecretion” (The Board of Trustees of the Leland Stanford Junior …, priority 2020, published 2023)
